Experimental findings from patent publication US4511724A, “5-(Pyrrol-2-oyl)-1,2-dihydro-3H-pyrrolo [1,2-a]pyrrole derivatives as anti-inflammatory and analgesic agents” (Merck & Co., Inc., priority 1982, dated 1985) are described below.

The nature of one data set: in vivo. Conditions: rat, po. More on the design: species or system Rats (Sprague-Dawley). As for the experimental part: The GHLF test is conducted according to the following procedure:
Rats (Sprague-Dawley, Males, 120-180 gm) were fasted overnight and dosed orally with drug suspended in 0.5% methylcellulose. The drug concentration was adjusted so that each animal received 1.0 ml/100 gm body weight. Four hours later the animals were killed by asphixiation in carbon dioxide, the stomachs removed, cut open and everted. The mucosal lining was washed and examined under 3X magnification. The lesions are indentified as perforations of the gastric mucosa many of which perforate right through the wall of the stomach.
The results are expressed in two ways, the average number of lesions per stomach, and the number of animals in the group showing at least one lesion.

In data set [1] the test system is phenylbenzquinone (PBQ) writhing. Put plainly: Inhibition of phenylbenzquinone (PBQ) writhing in mice. The data set is classed as in vivo, mice (C.B.L., CD1). Conditions: Mus musculus, oral, PBQ 2.0 mg/kg i.p. As for the experimental part:
b. Inhibition of phenylbenzquinone (PBQ) writhing in mice:
Groups of 10 male mice (C.B.L., CD1, 18-22 grams) were food deprived overnight prior to the experiments. Test substances, suspended or dissolved in 1% methylcellulose, were administered orally (0.1 ml/10 grams body weight) at various times prior to administration of PBQ (2.0 mg/kg i.p.). The mice were placed in individual boxes and observed for 10 minutes (5 to 15 minutes after PBQ). The number of "writhes" (abdominal contraction, lordosis and hindlimb extension) for each animal was recorded and the group means and standard errors were calculated. The means obtained from drug treated groups were compared with the vehicle control mean values and percent inhibition of writhing was calculated as follows: [formula]
(In general: An intraperitoneal irritant provokes the stretching counted in writhing tests.)

A further data set deals with adjuvant arthritis. Kind of data set: Rat adjuvant arthritis test (adjuvant). The conditions noted are these: for ED50: rat adjuvant arthritis. The class given is in vivo. An excerpt:
c. Rat adjuvant arthritis test (adjuvant)
The test was done in accordance with procedures well-known in the art (see: C. A. Winter, Arthr. Rheum 9, 394-404 (1966).

What is called ED50 is the dose that gives a 50% effect, or the effect in half of the subjects.

`CSc1ccc(C(=O)c2c(C)cc3n2CCC3C(=O)O)n1C` (centres unmarked) [RZ = CH3 S, R^4 = H, 5-(1-methyl-5-methylthio-2-pyrroyl)-1,2-dihydro-6-methyl-3H-pyrrolo-[1,2-a]pyrrole-1-carboxylic acid]: in “in vivo”, the TD50 at 4 h was 15 mg/kg.
Molecule `CCOC(=O)C1CCn2c1cc(C)c2C(=O)c1ccc(SC)n1C` (centres unmarked) [RZ = CH3 S, R^4 = C2 H5, ethyl 5-(1-methyl-5-methylthio-2-pyrroyl)-1,2-dihydro-6-methyl-3H-pyrrolo-[1,2-a]pyrrole-1-carboxylate] yielded a TD50 at 4 h in “in vivo” of 90 mg/kg. For the same molecule, the ED50 in data set [1] worked out at 0.17 mg/kg; in the data set with adjuvant arthritis, 7.5 mg/kg. The “protection from bone and cartilage destruction” value in the data set on adjuvant arthritis (at 10 mg/kg) is listed as “Protection”.
Consider `Cc1cc2n(c1C(=O)c1ccc(Cl)n1C)CCC2C(=O)O` (centres unmarked) [RZ = Cl, R^4 = H, 5-(1-methyl-5-chloro-2-pyrroyl)-1,2-dihydro-6-methyl-3H-pyrrolo[1,2-a]pyrrole-1-carboxylic acid], for which, in the data set “in vivo”, the TD50 at 4 h was 15 mg/kg. In data set [1], the ED50 turned out to be 2.1 mg/kg.
In turn, `CCOC(=O)C1CCn2c1cc(C)c2C(=O)c1cccn1C` (centres unmarked) [Prior Art Compound, reference compound] showed a TD50 at 4 h in “in vivo” of 10 mg/kg. In addition, the ED50 in data set [1] stood at 1 mg/kg; with adjuvant arthritis, 30 mg/kg. Besides, the “protection from bone and cartilage destruction” value in the data set on adjuvant arthritis (at 30 mg/kg) is listed as “No protection”.
